From patent publication US7166579B2, “Prodrugs of DP IV-inhibitors” (Prosidion Limited, priority 1998, dated 2007)
Counter-ions that a name gives are not always drawn. Residues, ends and D or L forms follow the SMILES beside them.

Legend:
[1] = target: T1, human peptide transporter PepT1 (Homo sapiens, UniProt P46059); assay: Electrophysiological transport analysis, hPEPT1 expressed in oocytes; assay type: cell-based
T1 construct: expressed in transfected cells
T1 sequence (P46059 1-708): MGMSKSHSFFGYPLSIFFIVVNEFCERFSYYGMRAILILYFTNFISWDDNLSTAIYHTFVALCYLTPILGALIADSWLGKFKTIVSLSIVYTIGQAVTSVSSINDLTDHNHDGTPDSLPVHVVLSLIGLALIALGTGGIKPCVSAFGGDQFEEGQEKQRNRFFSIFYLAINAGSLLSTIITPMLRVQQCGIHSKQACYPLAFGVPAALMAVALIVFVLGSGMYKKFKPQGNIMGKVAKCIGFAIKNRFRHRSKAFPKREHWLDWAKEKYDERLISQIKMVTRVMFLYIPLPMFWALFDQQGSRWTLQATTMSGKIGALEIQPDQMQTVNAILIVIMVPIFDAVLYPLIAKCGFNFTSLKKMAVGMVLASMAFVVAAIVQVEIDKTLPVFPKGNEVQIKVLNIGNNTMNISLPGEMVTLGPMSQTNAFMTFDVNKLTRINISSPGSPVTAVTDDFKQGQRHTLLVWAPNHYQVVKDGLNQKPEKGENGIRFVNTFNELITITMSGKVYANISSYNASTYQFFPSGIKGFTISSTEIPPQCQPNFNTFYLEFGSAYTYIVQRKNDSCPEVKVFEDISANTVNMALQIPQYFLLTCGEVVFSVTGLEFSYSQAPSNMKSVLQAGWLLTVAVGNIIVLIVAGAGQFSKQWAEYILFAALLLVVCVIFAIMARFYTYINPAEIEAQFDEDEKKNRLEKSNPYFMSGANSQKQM

[2] = target: T1, human peptide transporter PepT1; assay: Affinity to PepT1 by displacement of radioactively labeled D-Phe-Ala; conditions: read-out: Binding constant, mM, to PepT1, relative to D-Phe-Ala
[3] = Blood glucose after oral glucose stimulation and oral administration (glucose tolerance); assay type: in vivo; conditions: Wistar rats; within 100 minutes of p.o. glucose stimulation; p.o. dose 2.5 um active substance/300 g of animal; control = 100
human blood-DP IV = target: T2, human blood-DP IV (Homo sapiens, UniProt P27487); assay: Inhibition of DP IV in human whole blood by release of Ile-Thia from prodrugs; conditions: same concentration of prodrug, compared with Pro-Ile-Thia and Gly-Pro-Ile-Thia
T2 construct: from tissue; host or cells: human whole blood
Excerpt: Release of the masked DP IV-inhibitor in the blood can be carried out, in the case of the examples selected, by DP IV itself (Pro-Pro-Ile-Thia=PPIThia, Gly-Pro-Ile-Thia=GPIThia) or by aminopeptidases (pGlu-Ile-Thia=pEIThia, Pro-Ile-Thia=PIThia) (FIG. 1).

T2 sequence (P27487 whole entry): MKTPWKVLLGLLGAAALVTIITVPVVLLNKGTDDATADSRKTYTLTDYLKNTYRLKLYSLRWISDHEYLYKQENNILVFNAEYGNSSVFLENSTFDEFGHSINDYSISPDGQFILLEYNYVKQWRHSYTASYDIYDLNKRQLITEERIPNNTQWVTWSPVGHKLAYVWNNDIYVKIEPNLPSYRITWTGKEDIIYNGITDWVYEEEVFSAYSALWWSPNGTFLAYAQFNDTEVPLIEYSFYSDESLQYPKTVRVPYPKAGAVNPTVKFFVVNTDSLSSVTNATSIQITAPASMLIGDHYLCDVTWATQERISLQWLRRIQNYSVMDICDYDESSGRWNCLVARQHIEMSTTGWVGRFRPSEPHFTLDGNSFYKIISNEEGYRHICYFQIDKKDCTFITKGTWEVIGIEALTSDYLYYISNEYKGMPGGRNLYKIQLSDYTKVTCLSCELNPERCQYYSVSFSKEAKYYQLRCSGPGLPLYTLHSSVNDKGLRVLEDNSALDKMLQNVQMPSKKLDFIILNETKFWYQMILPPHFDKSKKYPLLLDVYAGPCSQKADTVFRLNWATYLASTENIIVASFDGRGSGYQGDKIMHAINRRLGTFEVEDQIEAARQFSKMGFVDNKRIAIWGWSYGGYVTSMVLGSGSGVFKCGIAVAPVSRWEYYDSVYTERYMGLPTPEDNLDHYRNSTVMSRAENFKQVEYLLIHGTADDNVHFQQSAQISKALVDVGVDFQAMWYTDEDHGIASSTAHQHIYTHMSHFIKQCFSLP

Compound | Electrophys. transport analysis (hPEPT1 expr. in oocytes), flux % based on the Gly-Gln control (100%) [1] [%] | Ki [2] [mM] | also measured
CC[C@H](C)[C@H](N)C(=O)N1CCC[C@H]1C(=O)N[C@H](C(=O)N1CCSC1)[C@@H](C)CC (as salt: HCl) [Ile-Pro-Ile-Thia] | – | – | melting point: 98 to 107 °C
NC(=O)CC(N)C(=O)N1CCCC1 (stereo not shown) [Asn-Pyr] | 30 | 3.01 | –
NC(=O)CC(N)C(=O)N1CCSC1 (stereo not shown) [Asn-Thia] | 83 | 0.5 | –
NC(Cc1c[nH]cn1)C(=O)N1CCCC1 (stereo not shown) [His-Pyr] | 7 | 5.34 | –
CC[C@H](C)[C@H](N)C(=O)N1CCC[C@H]1C(=O)N[C@H](C(=O)N1CCSC1)[C@@H](C)CC [Ile-Pro-Ile-Thia] | 44 | 0.61 | –
CCC(C)C(N)C(=O)N1CCCC1 (stereo not shown) [Ile-Pyr] | 14 | 2.66 | –
CCC(C)C(N)C(=O)N1CCSC1 (stereo not shown) [Ile-Thia, isoleucyl thiazolidide] | 25 | 0.98 | % glucose level [3]: 74.4%
NCCCCC(N)C(=O)NC(Cc1ccccc1)C(=O)N1CCCC1C(=O)O (stereo not drawn) [Lys-Phe-Pro] (H-Lys-Phe-Pro-OH; configuration not given here) | 10 | 0.19 | –
NCCCCC(N)C(=O)NC(Cc1ccccc1)C(=O)O (stereo not shown) [Lys-phe] | 95 | 0.08 | –
H-Gly-Pro-Ile-Thia/HC1 | – | – | % glucose level [3]: 57.1%
H-Pro-Ile-Thia/HC1 | – | – | % glucose level [3]: 56.1%
Pro-Pro-Ile-Thia | – | – | Release of the DP IV-inhibitor isoleucyl thiazolidide from the prodrug in the blood (time course of DP IV inhibition) (human blood-DP IV): more marked delay in the release of active substance
pGlu-Ile-Thia | – | – | Release of the DP IV-inhibitor isoleucyl thiazolidide from the prodrug in the blood (time course of DP IV inhibition) (human blood-DP IV): more marked delay in the release of active substance
